Assay results published in patent US20090270431A1, “Cyclopentenol Nucleoside Compounds Intermediates for their Synthesis and Methods of Treating Viral Infections” (THE UNIVERSITY OF GEORGIA RESEARCH FOUNDATION, priority 2005, published 2009).
Counter-ions that a name gives are not always drawn. Like-named read-outs stand apart in the source and are kept apart here.

Assays:
PIV = assay: antiviral assay, PIV in MA-104; type: cell-based, parainfluenza virus
Vaccinia = assay: microbe, parasite or virus in culture; type: cell-based, vaccinia virus; conditions: Orthopoxvirus vaccinia, HFF
Flu A = assay: organism not typed; type: cell-based
SARS = assay: organism not typed; type: cell-based; conditions: Vero 76
VZV = assay: CPE assay, VZV in HFF cells; type: cell-based, varicella zoster virus; conditions: Human alphaherpesvirus 3
Flu A (H3N2) = assay: microbe, parasite or virus in culture; type: cell-based
Adeno = assay: antiviral assay, Adeno in A-549; type: cell-based; conditions: unidentified adenovirus, A549, Adeno
RSV A = assay: antiviral assay, RSV A in MA-104; type: cell-based; conditions: human respiratory syncytial virus, MA104, RSV A
Yellow Fever = assay: organism not typed; type: cell-based; conditions: Vero
Hepatitis B Virus [1] = assay: in vitro anti-HBV activity, VIR (extracellular virion HBV DNA); type: cell-based
Procedure: (§1) In the first biological experiment, a number of 7-deazaneplanocin compounds were tested in vitro to determine activity against hepatitis B virus (HBV).

HCV RNA replicon = HCV RNA replicon assay; type: cell-based, hepatitis C virus (HCV); conditions: for EC50: Hepatitis C virus, read-out: EC50
Procedure: A number of […] 7-deazaneplanocin compounds were tested in vitro to determine activity against hepatitis C virus (HCV).

Cowpox = assay: microbe, parasite or virus in culture; type: cell-based, cowpox virus; conditions: Cowpox virus, HFF
Rhinovirus = assay: antiviral assay, Rhinovirus in HeLa Ohio-1; type: cell-based; conditions: Enterovirus, HeLa Ohio1, RV, HO-1
HSV-2 = assay: CPE assay, HSV-2 in HFF cells; type: cell-based, herpes simplex virus type 2; conditions: Human alphaherpesvirus 2
Flu A (H5N1) = assay: microbe, parasite or virus in culture; type: cell-based
Flu A (H1N1) = assay: microbe, parasite or virus in culture; type: cell-based; conditions: Influenza A virus, H1N1, MDCK
Measles = assay: antiviral assay, Measles in CV-1; type: cell-based; conditions: Measles morbillivirus
HSV-1 = assay: CPE assay, HSV-1 in HFF cells; type: cell-based, herpes simplex virus type 1; conditions: Human alphaherpesvirus 1
HCMV = assay: CPE assay, HCMV in HFF cells; type: cell-based, human cytomegalovirus; conditions: Human betaherpesvirus 5
HBV strain WT = assay: HBV DR Assay, strain WT; type: cell-based
[2] = toxicity (CC50) in the anti-HBV test; type: cell-based
Hepatitis B Virus [3] = assay: in vitro anti-HBV activity, RI (intracellular HBV DNA replication intermediates); type: cell-based
Procedure: as §1

[4] = tested on: vacinnia, cowpox and SARS viruses; type: cell-based
cowpox virus = type: cell-based; conditions: against cowpox virus
SARS virus = type: cell-based; conditions: against SARS virus
vacinnia virus = type: cell-based; conditions: against vacinnia virus
[5] = cytotoxicity in the HCV RNA replicon assay
[6] = VIR: extracellular virion HBV DNA
[7] = Hepatitis B virus, VIR: extracellular virion HBV DNA

Nc1nccc2c1ncn2[C@@H]1C=C(CO)[C@@H](O)[C@H]1O [Compound 3-DNPA, (−)-1-[(1R,4R,5S)-3-(Hydroxymethyl)-4,5-dihydroxy-2-cyclopenten-1-yl]-4-aminoimidazo[4,5-c]pyridine Hydrochloride]
EC50 (PIV; MA104, NR): > 100 µM | EC50 (PIV; Visual): > 100 µM | EC50 (Vaccinia): 2.9 µM | EC50 (Flu A): > 100 µM | EC50 (SARS; SARS, Visual): > 100 µM | EC50 (SARS): > 100 µM | EC50 (VZV): > 300 µM | EC50 (Flu A (H3N2); Flu A (H3N2), Visual, MDCK): > 100 µM | EC50 (Flu A (H3N2); Influenza A virus, H3N2, MDCK): > 100 µM | EC50 (Adeno; NR): 17 µM | EC50 (Adeno; Visual): 24 µM | EC50 (RSV A; NR): 4 µM | EC50 (RSV A; Visual): 100 µM | EC50 (Yellow Fever): > 100 µM | EC50 (Yellow Fever; YF, Visual): > 100 µM | EC50 (Hepatitis B Virus [1]; Hepatitis B virus, HBV, VIR, Huh7 ET (Table 3)): 0.59 µM | EC50 (HCV RNA replicon; Huh7 ET, HCV, HRR (HCV RNA replicon), Huh7 ET): 1.44 µM | EC50 (Cowpox): 182 µM | EC50 (Rhinovirus; NR): 4 µM | EC50 (Rhinovirus; Visual): 32 µM | EC50 (HSV-2): 43.5 µM | EC50 (Flu A (H5N1); Flu A (H5N1), Visual, MDCK): > 100 µM | EC50 (Flu A (H5N1); Influenza A virus, H5N1, MDCK): > 100 µM | EC50 (Flu A (H1N1); NR): > 25 µM | EC50 (Flu A (H1N1); Visual): > 100 µM | EC50 (Measles; NR): 0.4 µM | EC50 (Measles; Visual): 0.9 µM | EC50 (HSV-1): > 300 µM | EC50 (HCMV): 0.36 µM

Nc1ccn([C@@H]2CS[C@H](CO)O2)c(=O)n1 [Compound 3TC]
EC50 (HBV strain WT): 0.2 µM | EC90 (HBV strain WT): 0.6 µM

Nc1ncnc2c1c(F)cn2[C@@H]1C=C(CO)[C@@H](O)[C@H]1O [Compound 10]
CC50 [2]: > 300 µM | EC50 (Hepatitis B Virus [1]; [6]): > 10 µM | EC90 (Hepatitis B Virus [1]; [6]): > 10 µM

Nc1ncnc2c1c(Cl)cn2[C@@H]1C=C(CO)[C@@H](O)[C@H]1O [Compound 11, 7-Deaza-7-Chloro Neplanocin A]
CC50 [2]: > 300 µM | EC50 (Hepatitis B Virus [1]; [6]): > 10 µM | EC90 (Hepatitis B Virus [1]; [6]): > 10 µM

Nc1ncnc2c1c(Br)cn2[C@@H]1C=C(CO)[C@@H](O)[C@H]1O [Compound 12, 7-Deaza-7-Bromo Neplanocin A]
CC50 [2]: > 300 µM | EC50 (Hepatitis B Virus [1]; [6]): > 10 µM | EC90 (Hepatitis B Virus [1]; [6]): > 10 µM

Nc1ncnc2c1c(I)cn2[C@@H]1C=C(CO)[C@@H](O)[C@H]1O [Compound 13, 7-Deaza-7-Iodo Neplanocin A]
CC50 [2]: > 300 µM | EC50 (Hepatitis B Virus [3]): 1.6 µM | EC90 (Hepatitis B Virus [3]): 5.9 µM | EC50 (Hepatitis B Virus [1]; [6]): 0.431 µM | EC90 (Hepatitis B Virus [1]; [6]): 1.8 µM

N#Cc1cn([C@@H]2C=C(CO)[C@@H](O)[C@H]2O)c2ncnc(N)c12 [Compound 17, 7-Deaza-7-Cyano-Neplanocin A]
CC50 [2]: > 300 µM | EC50 (Hepatitis B Virus [1]; [6]): > 10 µM | EC90 (Hepatitis B Virus [1]; [6]): > 10 µM

NC(=O)c1cn(C2C=C(CO)C(O)C2O)cn1 (stereo not shown) [Compound 17b, 1-(4,5-Dihydroxy-3-hydroxymethyl-cyclopenten-2-enyl)-1H-imidazole-4-carboxylic acid amide]
antiviral activity [4]: did not show any significant antiviral activity

NC(=O)c1cn(C2C=C(CO)C(O)C2O)nn1 (stereo not shown) [Compound 17c, 1-(4,5-Dihydroxy-3-hydroxymethyl-cyclopenten-2-enyl)-1H-[1,2,3]triazole-4-carboxylic acid amide]
EC50 (cowpox virus): 39 µM | EC50 (SARS virus): 47 µM | EC50 (vacinnia virus): 0.4 µM

NC(=O)c1cn([C@@H]2C=C(CO)[C@@H](O)[C@H]2O)c2ncnc(N)c12 [Compound 18, 7-Deaza-7-Amido-Neplanocin A]
CC50 [2]: > 300 µM | EC50 (Hepatitis B Virus [1]; [6]): > 10 µM | EC90 (Hepatitis B Virus [1]; [6]): > 10 µM

Nc1ncnc2c1c([N+](=O)[O-])cn2[C@@H]1C=C(CO)[C@H](O)C1O (stereo partly shown) [Compound 22, 7—Deaza-7-Nitro-Neplanocin A]
CC50 [2]: > 300 µM | EC50 (Hepatitis B Virus [1]; [7]): > 10 µM | EC90 (Hepatitis B Virus [1]; [7]): > 10 µM | melting point: 245 to 246 °C

C=Cc1cn([C@@H]2C=C(CO)[C@H](O)C2O)c2ncnc(N)c12 (stereo partly shown) [Compound 25, 7-Deaza-7-Vinyl-Substituted Neplanocin A]
CC50 [2]: > 300 µM | EC50 (Hepatitis B Virus [3]; Hepatitis B virus): 10 µM | EC90 (Hepatitis B Virus [3]; Hepatitis B virus): 26 µM | EC50 (Hepatitis B Virus [1]; [7]): 3.3 µM | EC90 (Hepatitis B Virus [1]; [7]): 9.1 µM | melting point: 168 to 170 °C

C#Cc1cn([C@@H]2C=C(CO)C(O)C2O)c2ncnc(N)c12 (stereo partly shown) [Compound 27, 7-Deaza-7-Acetylene-Neplanocin A]
CC50 [2]: > 300 µM | EC50 (Hepatitis B Virus [3]; Hepatitis B virus): 1.8 µM | EC90 (Hepatitis B Virus [3]; Hepatitis B virus): 7.9 µM | EC50 (HBV strain WT; Hepatitis B virus): 2.5 µM | EC90 (HBV strain WT; Hepatitis B virus): 8.7 µM | EC50 (Hepatitis B Virus [1]; [7]): 0.315 µM | EC90 (Hepatitis B Virus [1]; [7]): 1.6 µM | melting point: 126 to 128 °C

C#Cc1cn([C@@H]2C=C(CO)C(O)C2O)c2ncnc(N)c12 (stereo partly shown) [drawing 37]
EC50 (HCV RNA replicon; HT20, HT @ 20 μM): 12.3 µM | EC50 (HCV RNA replicon; HT @ 100 μM): 20.1 µM | Activity (% inhibition virus control) (HCV RNA replicon; primary, single-dilution test): 73.3% | IC50 ([5]; HT20, HT @ 20 μM): > 20 µM | IC50 ([5]; HT @ 100 μM): 48.9 µM | Cytotoxicity (% cell control) ([5]; primary, single-dilution test): 86.6%
